≈ marks a conversion by molar mass, not a printed value.
Columns and labels:
Assay type in all cases: functional
Nakaseomyces glabratus = experiment: Antifungal activity against Candida glabrata assessed as inhibition of fungal growth by CLSI M27-A3 guidelines based method
Candida parapsilosis = experiment: Antifungal activity against Candida parapsilosis GIM 2.190 assessed as inhibition of fungal growth by CLSI M27-A3 guidelines based method; conditions: Lodderomyces parapsilosis
Cryptococcus neoformans = experiment: Antifungal activity against Cryptococcus neoformans CGMCC 2.3161 assessed as inhibition of fungal growth by CLSI M27-A3 guidelines based method
Candida tropicalis = experiment: Antifungal activity against Candida tropicalis GIM 2.183 assessed as inhibition of fungal growth by CLSI M27-A3 guidelines based method
Candida albicans [1] = experiment: Antifungal activity against Candida albicans SC5314 assessed as inhibition of fungal growth by CLSI M27-A3 guidelines based method
Candida albicans [2] = experiment: Antifungal activity against Candida albicans GIM 2.194 assessed as inhibition of fungal growth by CLSI M27-A3 guidelines based method
Pichia kudriavzevii = experiment: Antifungal activity against Candida krusei GIM 2.1 assessed as inhibition of fungal growth by CLSI M27-A3 guidelines based method

Structure (SMILES): CN(Cc1ccc(N2CCN(Cc3ccc(Br)cc3)CC2)cc1)CC(O)(Cn1cncn1)c1ccc(F)cc1F (configuration not stated)
- MIC80 (Nakaseomyces glabratus): 0.4 µg/mL (≈ 0.654 µM)
- MIC80 (Candida parapsilosis): 0.05 µg/mL (≈ 0.0818 µM)
- MIC80 (Cryptococcus neoformans): 0.2 µg/mL (≈ 0.327 µM)
- MIC80 (Candida tropicalis): 0.025 µg/mL (≈ 0.0409 µM)
- MIC80 (Candida albicans [1]): 0.025 µg/mL (≈ 0.0409 µM)
- MIC80 (Candida albicans [2]): 0.025 µg/mL (≈ 0.0409 µM)
- MIC80 (Pichia kudriavzevii): 0.1 µg/mL (≈ 0.164 µM)

Structure (SMILES): CN(Cc1ccc(N2CCN(C(=O)C3CC3)CC2)cc1)CC(O)(Cn1cncn1)c1ccc(F)cc1F (configuration not stated)
- MIC80 (Nakaseomyces glabratus): 32 µg/mL (≈ 62.7 µM)
- MIC80 (Candida parapsilosis): 0.5 µg/mL (≈ 0.979 µM)
- MIC80 (Cryptococcus neoformans): 16 µg/mL (≈ 31.3 µM)
- MIC80 (Candida tropicalis): 1 µg/mL (≈ 1.96 µM)
- MIC80 (Candida albicans [1]): 0.25 µg/mL (≈ 0.49 µM)
- MIC80 (Candida albicans [2]): 1 µg/mL (≈ 1.96 µM)
- MIC80 (Pichia kudriavzevii): 32 µg/mL (≈ 62.7 µM)

Structure (SMILES): CN(Cc1ccc(N2CCN(Cc3c(F)cccc3Br)CC2)cc1)CC(O)(Cn1cncn1)c1ccc(F)cc1F (configuration not stated)
- MIC80 (Nakaseomyces glabratus): 0.2 µg/mL (≈ 0.318 µM)
- MIC80 (Candida parapsilosis): 0.013 µg/mL (≈ 0.0207 µM)
- MIC80 (Cryptococcus neoformans): 0.1 µg/mL (≈ 0.159 µM)
- MIC80 (Candida tropicalis): 0.013 µg/mL (≈ 0.0207 µM)
- MIC80 (Candida albicans [1]): 0.013 µg/mL (≈ 0.0207 µM)
- MIC80 (Candida albicans [2]): 0.1 µg/mL (≈ 0.159 µM)
- MIC80 (Pichia kudriavzevii): 0.1 µg/mL (≈ 0.159 µM)

Structure (SMILES): CCC(=O)N1CCN(c2ccc(CN(C)CC(O)(Cn3cncn3)c3ccc(F)cc3F)cc2)CC1 (configuration not stated)
- MIC80 (Nakaseomyces glabratus): 16 µg/mL (≈ 32.1 µM)
- MIC80 (Candida parapsilosis): 0.1 µg/mL (≈ 0.201 µM)
- MIC80 (Cryptococcus neoformans): 8 µg/mL (≈ 16 µM)
- MIC80 (Candida tropicalis): 0.5 µg/mL (≈ 1 µM)
- MIC80 (Candida albicans [1]): 0.25 µg/mL (≈ 0.501 µM)
- MIC80 (Candida albicans [2]): 0.5 µg/mL (≈ 1 µM)
- MIC80 (Pichia kudriavzevii): 16 µg/mL (≈ 32.1 µM)

Structure (SMILES): CN(Cc1ccc(N2CCN(Cc3ccc(C(F)(F)F)cc3Br)CC2)cc1)CC(O)(Cn1cncn1)c1ccc(F)cc1F (configuration not stated)
- MIC80 (Nakaseomyces glabratus): 0.2 µg/mL (≈ 0.294 µM)
- MIC80 (Candida parapsilosis): 0.013 µg/mL (≈ 0.0191 µM)
- MIC80 (Cryptococcus neoformans): 0.2 µg/mL (≈ 0.294 µM)
- MIC80 (Candida tropicalis): 0.025 µg/mL (≈ 0.0368 µM)
- MIC80 (Candida albicans [1]): 0.013 µg/mL (≈ 0.0191 µM)
- MIC80 (Candida albicans [2]): 0.025 µg/mL (≈ 0.0368 µM)
- MIC80 (Pichia kudriavzevii): 0.2 µg/mL (≈ 0.294 µM)

Structure (SMILES): CN1CCN(c2ccc(CN(C)CC(O)(Cn3cncn3)c3ccc(F)cc3F)cc2)CC1 (configuration not stated)
- MIC80 (Nakaseomyces glabratus): > 32 µg/mL
- MIC80 (Candida parapsilosis): 8 µg/mL (≈ 17.5 µM)
- MIC80 (Cryptococcus neoformans): > 32 µg/mL
- MIC80 (Candida tropicalis): 4 µg/mL (≈ 8.76 µM)
- MIC80 (Candida albicans [1]): 8 µg/mL (≈ 17.5 µM)
- MIC80 (Candida albicans [2]): 8 µg/mL (≈ 17.5 µM)
- MIC80 (Pichia kudriavzevii): > 32 µg/mL

Structure (SMILES): CN(Cc1ccc(N2CCN(Cc3ccc(Br)cc3Br)CC2)cc1)CC(O)(Cn1cncn1)c1ccc(F)cc1F (configuration not stated)
- MIC80 (Nakaseomyces glabratus): 0.1 µg/mL (≈ 0.145 µM)
- MIC80 (Candida parapsilosis): 0.006 µg/mL (≈ 0.00869 µM)
- MIC80 (Candida tropicalis): 0.006 µg/mL (≈ 0.00869 µM)
- MIC80 (Candida albicans [1]): 0.013 µg/mL (≈ 0.0188 µM)
- MIC80 (Candida albicans [2]): 0.013 µg/mL (≈ 0.0188 µM)
- MIC80 (Pichia kudriavzevii): 0.1 µg/mL (≈ 0.145 µM)

Structure (SMILES): CN(Cc1ccc(N2CCN(Cc3ccc(F)cc3)CC2)cc1)CC(O)(Cn1cncn1)c1ccc(F)cc1F (configuration not stated)
- MIC80 (Nakaseomyces glabratus): 0.8 µg/mL (≈ 1.45 µM)
- MIC80 (Candida parapsilosis): 0.2 µg/mL (≈ 0.363 µM)
- MIC80 (Cryptococcus neoformans): 0.8 µg/mL (≈ 1.45 µM)
- MIC80 (Candida tropicalis): 0.1 µg/mL (≈ 0.182 µM)
- MIC80 (Candida albicans [1]): 0.1 µg/mL (≈ 0.182 µM)
- MIC80 (Candida albicans [2]): 0.05 µg/mL (≈ 0.0908 µM)
- MIC80 (Pichia kudriavzevii): 0.2 µg/mL (≈ 0.363 µM)

Structure (SMILES): CN(Cc1ccc(N2CCN(Cc3ccccc3I)CC2)cc1)CC(O)(Cn1cncn1)c1ccc(F)cc1F (configuration not stated)
- MIC80 (Nakaseomyces glabratus): 0.2 µg/mL (≈ 0.304 µM)
- MIC80 (Candida parapsilosis): 0.025 µg/mL (≈ 0.038 µM)
- MIC80 (Candida tropicalis): 0.013 µg/mL (≈ 0.0197 µM)
- MIC80 (Candida albicans [1]): 0.013 µg/mL (≈ 0.0197 µM)
- MIC80 (Candida albicans [2]): 0.013 µg/mL (≈ 0.0197 µM)
- MIC80 (Pichia kudriavzevii): 0.1 µg/mL (≈ 0.152 µM)

Structure (SMILES): CN(Cc1ccc(N2CCN(Cc3cccc(Cl)c3)CC2)cc1)CC(O)(Cn1cncn1)c1ccc(F)cc1F (configuration not stated)
- MIC80 (Nakaseomyces glabratus): 0.2 µg/mL (≈ 0.353 µM)
- MIC80 (Candida parapsilosis): 0.006 µg/mL (≈ 0.0106 µM)
- MIC80 (Cryptococcus neoformans): 0.1 µg/mL (≈ 0.176 µM)
- MIC80 (Candida tropicalis): 0.013 µg/mL (≈ 0.0229 µM)
- MIC80 (Candida albicans [1]): 0.025 µg/mL (≈ 0.0441 µM)
- MIC80 (Candida albicans [2]): 0.013 µg/mL (≈ 0.0229 µM)
- MIC80 (Pichia kudriavzevii): 0.1 µg/mL (≈ 0.176 µM)

Structure (SMILES): CC(=O)N1CCN(c2ccc(CN(C)CC(O)(Cn3cncn3)c3ccc(F)cc3F)cc2)CC1 (configuration not stated)
- MIC80 (Nakaseomyces glabratus): 16 µg/mL (≈ 33 µM)
- MIC80 (Candida parapsilosis): 0.1 µg/mL (≈ 0.206 µM)
- MIC80 (Cryptococcus neoformans): 8 µg/mL (≈ 16.5 µM)
- MIC80 (Candida tropicalis): 0.5 µg/mL (≈ 1.03 µM)
- MIC80 (Candida albicans [1]): 0.5 µg/mL (≈ 1.03 µM)
- MIC80 (Candida albicans [2]): 0.1 µg/mL (≈ 0.206 µM)
- MIC80 (Pichia kudriavzevii): 16 µg/mL (≈ 33 µM)

Structure (SMILES): CC(C)C(=O)N1CCN(c2ccc(CN(C)CC(O)(Cn3cncn3)c3ccc(F)cc3F)cc2)CC1 (configuration not stated)
- MIC80 (Nakaseomyces glabratus): 16 µg/mL (≈ 31.2 µM)
- MIC80 (Candida parapsilosis): 0.25 µg/mL (≈ 0.488 µM)
- MIC80 (Cryptococcus neoformans): 16 µg/mL (≈ 31.2 µM)
- MIC80 (Candida tropicalis): 0.5 µg/mL (≈ 0.975 µM)
- MIC80 (Candida albicans [1]): 0.25 µg/mL (≈ 0.488 µM)
- MIC80 (Candida albicans [2]): 1 µg/mL (≈ 1.95 µM)
- MIC80 (Pichia kudriavzevii): 16 µg/mL (≈ 31.2 µM)

Structure (SMILES): CN(Cc1ccc(N2CCN(Cc3ccccc3)CC2)cc1)CC(O)(Cn1cncn1)c1ccc(F)cc1F (configuration not stated)
- MIC80 (Nakaseomyces glabratus): 0.4 µg/mL (≈ 0.751 µM)
- MIC80 (Candida parapsilosis): 0.025 µg/mL (≈ 0.0469 µM)
- MIC80 (Cryptococcus neoformans): 0.2 µg/mL (≈ 0.375 µM)
- MIC80 (Candida tropicalis): 0.013 µg/mL (≈ 0.0244 µM)
- MIC80 (Candida albicans [1]): 0.013 µg/mL (≈ 0.0244 µM)
- MIC80 (Candida albicans [2]): 0.013 µg/mL (≈ 0.0244 µM)
- MIC80 (Pichia kudriavzevii): 0.4 µg/mL (≈ 0.751 µM)

Structure (SMILES): CN(Cc1ccc(N2CCN(Cc3ccc(Cl)cc3)CC2)cc1)CC(O)(Cn1cncn1)c1ccc(F)cc1F (configuration not stated)
- MIC80 (Nakaseomyces glabratus): 0.8 µg/mL (≈ 1.41 µM)
- MIC80 (Candida parapsilosis): 0.1 µg/mL (≈ 0.176 µM)
- MIC80 (Cryptococcus neoformans): 0.8 µg/mL (≈ 1.41 µM)
- MIC80 (Candida tropicalis): 0.05 µg/mL (≈ 0.0882 µM)
- MIC80 (Candida albicans [1]): 0.05 µg/mL (≈ 0.0882 µM)
- MIC80 (Candida albicans [2]): 0.05 µg/mL (≈ 0.0882 µM)
- MIC80 (Pichia kudriavzevii): 0.1 µg/mL (≈ 0.176 µM)

Structure (SMILES): CN(Cc1ccc(N2CCN(Cc3ccc(-c4ccccc4)cc3)CC2)cc1)CC(O)(Cn1cncn1)c1ccc(F)cc1F (configuration not stated)
- MIC80 (Nakaseomyces glabratus): 0.4 µg/mL (≈ 0.657 µM)
- MIC80 (Candida parapsilosis): 0.025 µg/mL (≈ 0.0411 µM)
- MIC80 (Cryptococcus neoformans): 0.3 µg/mL (≈ 0.493 µM)
- MIC80 (Candida tropicalis): 0.013 µg/mL (≈ 0.0214 µM)
- MIC80 (Candida albicans [1]): 0.025 µg/mL (≈ 0.0411 µM)
- MIC80 (Candida albicans [2]): 0.025 µg/mL (≈ 0.0411 µM)
- MIC80 (Pichia kudriavzevii): 0.2 µg/mL (≈ 0.329 µM)

Structure (SMILES): CN(Cc1ccc(N2CCN(Cc3ccccc3F)CC2)cc1)CC(O)(Cn1cncn1)c1ccc(F)cc1F (configuration not stated)
- MIC80 (Nakaseomyces glabratus): 0.4 µg/mL (≈ 0.726 µM)
- MIC80 (Candida parapsilosis): 0.025 µg/mL (≈ 0.0454 µM)
- MIC80 (Cryptococcus neoformans): 0.2 µg/mL (≈ 0.363 µM)
- MIC80 (Candida tropicalis): 0.05 µg/mL (≈ 0.0908 µM)
- MIC80 (Candida albicans [1]): 0.05 µg/mL (≈ 0.0908 µM)
- MIC80 (Candida albicans [2]): 0.006 µg/mL (≈ 0.0109 µM)
- MIC80 (Pichia kudriavzevii): 0.1 µg/mL (≈ 0.182 µM)

Structure (SMILES): CN(Cc1ccc(N2CCN(Cc3ccccc3Cl)CC2)cc1)CC(O)(Cn1cncn1)c1ccc(F)cc1F (configuration not stated)
- MIC80 (Nakaseomyces glabratus): 0.2 µg/mL (≈ 0.353 µM)
- MIC80 (Candida parapsilosis): 0.006 µg/mL (≈ 0.0106 µM)
- MIC80 (Cryptococcus neoformans): 0.1 µg/mL (≈ 0.176 µM)
- MIC80 (Candida tropicalis): 0.013 µg/mL (≈ 0.0229 µM)
- MIC80 (Candida albicans [1]): 0.025 µg/mL (≈ 0.0441 µM)
- MIC80 (Candida albicans [2]): 0.006 µg/mL (≈ 0.0106 µM)
- MIC80 (Pichia kudriavzevii): 0.1 µg/mL (≈ 0.176 µM)

From ChEMBL document CHEMBL6092162, “Identification of novel and potent triazoles targeting CYP51 for antifungal: Design, synthesis, and biological study” (Eur J Med Chem, 2024)
